Structures can show the parent of a compound that is named as a salt. Where two headings read alike, the source gives them in different places.

One assay deals with T1, human LPA4 receptor (Homo sapiens, UniProt Q99677).
T1 construct: expressed in transfected cells; host or cells: rat hepatocellular carcinoma cell line RH7777, targeted integration at the rRosa26 site
The experiment in a line: LPA4/SRE-luc reporter assay in RH7777 cells stably expressing human LPA4 receptor and SRE-Luc2. It counts as cell-based. The conditions noted are these: for EC50: read-out: LPA4/SRE-luc EC50. The procedure:
(§1) A stably expressing cell line that constantly expresses the human LPA4 receptor and SRE-Luc2 was established by the gene targeting introduction method of the rat hepatocellular carcinoma cell line RH7777 into rRosa26 site. Similarly, stably expressing cell lines for human LPA1 receptor and SRE-Luc2 were also established. Each cell line was seeded on a collagen-coated dish and maintained in culture, and cells were collected with trypsin EDTA and the required number (5×10^3 cells/well) was seeded on a 96-well plate. After culturing overnight at 37° C., LPA (Avanti Polar Lipids, Inc.) or each Example compound diluted with an assay medium added or not added with BSA was added, and the cells were cultured at 37° C. for 6 hr. Thereafter, a luciferase detection reagent (Bright-Glo, Promega) was added, and the chemiluminescence amount was quantified with an Envision (registered trade mark) multi-label counter (PerkinElmer) and used as an index of agonist activity.
(§2) The EC50 value of LPA or each Example compound was calculated using the […] Graph pad Prism for Windows ver.5.02 and ver.7.04. % Emax was expressed as the ratio of the maximum response (Emax) of LPA or each Example compound to the maximum response (Emax) of the positive control compound VPC 31144S (N-{(1S)-2-hydroxy-1-[(phosphonooxy)methyl]ethyl}(9Z) cctadec-9-enamide), with the Emax of the positive control compound VPC 31144S as 100%.

For another assay, the target named is T2, human LPA1 receptor (Homo sapiens, UniProt Q92633).
T2 construct: expressed in transfected cells; host or cells: rat hepatocellular carcinoma cell line RH7777 (made 'similarly' to the LPA4 line)
T2 sequence (Q92633 whole entry): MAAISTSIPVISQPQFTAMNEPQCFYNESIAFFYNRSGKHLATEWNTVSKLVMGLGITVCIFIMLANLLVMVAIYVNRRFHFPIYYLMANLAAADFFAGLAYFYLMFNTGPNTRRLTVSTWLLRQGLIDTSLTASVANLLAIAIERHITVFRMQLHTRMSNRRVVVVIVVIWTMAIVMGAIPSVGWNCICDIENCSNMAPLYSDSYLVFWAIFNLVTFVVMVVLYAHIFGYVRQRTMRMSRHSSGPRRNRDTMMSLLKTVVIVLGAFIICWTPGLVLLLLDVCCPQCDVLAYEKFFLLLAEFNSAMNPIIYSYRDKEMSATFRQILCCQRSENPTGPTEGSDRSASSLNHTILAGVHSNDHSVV
Description: LPA1/SRE-luc reporter assay in RH7777 cells stably expressing human LPA1 receptor and SRE-Luc2. Format: cell-based. The conditions noted are these: read-out: LPA1/SRE-luc EC50. The procedure:
as §1, §2

[1] abbreviates: RH7777, BSA not added, Emax of positive control VPC 31144S as 100%, read-out: LPA4/SRE-luc % Emax.
Setting [2] is: RH7777, read-out: LPA4/SRE-luc % Emax.
Where [3] appears, read: RH7777, BSA added, Emax of positive control VPC 31144S as 100%, read-out: LPA4/SRE-luc % Emax.

T1 sequence (Q99677 whole entry): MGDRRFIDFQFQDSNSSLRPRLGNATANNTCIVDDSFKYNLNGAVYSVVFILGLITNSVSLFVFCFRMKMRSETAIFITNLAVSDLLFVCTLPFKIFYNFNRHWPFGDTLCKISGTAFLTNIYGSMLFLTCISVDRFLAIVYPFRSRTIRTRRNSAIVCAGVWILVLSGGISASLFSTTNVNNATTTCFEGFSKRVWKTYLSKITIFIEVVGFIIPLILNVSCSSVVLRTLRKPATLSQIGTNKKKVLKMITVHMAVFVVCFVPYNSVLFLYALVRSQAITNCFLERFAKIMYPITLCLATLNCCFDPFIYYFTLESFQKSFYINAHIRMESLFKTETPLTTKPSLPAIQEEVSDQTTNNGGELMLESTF

Turning to `CCCCCCCCCOc1ccc(CCC(=O)N2CC(OP(=O)(O)O)C2)cc1` [Example 1, 1-{3-[4-(Nonyloxy)phenyl]propanoyl}azetidin-3-yl dihydrogen phosphate ammonium salt], the EC50 on human LPA4 receptor (BSA not added) is 28 nM; on human LPA1 receptor (BSA not added), over 10000 nM. Further, the Emax on human LPA4 receptor (setting [1]) amounted to 119%.

Regarding `CCCCCCc1ccc(CCCCC(=O)N2CC(OP(=O)(O)O)C2)cc1` [Example 7, 1-[5-(4-Hexylphenyl)pentanoyl]azetidin-3-yl dihydrogen phosphate], the EC50 was 37 nM on human LPA4 receptor (BSA not added) and over 10000 nM at human LPA1 receptor (BSA not added). Also, the Emax on human LPA4 receptor (setting [1]) turned out to be 125%.

Consider `Cc1ccc(CCCCCCCCCC(=O)N2CC(OP(=O)(O)O)C2)cc1` [Example 10, 1-[10-(4-Methylphenyl)decanoyl]azetidin-3-yl dihydrogen phosphate], for which the figures for the EC50 at human LPA4 receptor (BSA not added) and at human LPA1 receptor (BSA not added) were 30 nM and over 10000 nM, respectively. In addition, the Emax at human LPA4 receptor (setting [2]) is 101%.

Turning to `CCCc1ccc(CCCCCCCC(=O)N2CC(OP(=O)(O)O)C2)cc1` [Example 15, 1-[8-(4-Propylphenyl)octanoyl]azetidin-3-yl dihydrogen phosphate], the EC50 was 42 nM at human LPA4 receptor (BSA not added) and over 10000 nM on human LPA1 receptor (BSA not added). The Emax at human LPA4 receptor (setting [1]) was found to be 75%.

Turning to `CCCCCCCCCCOc1cccc(CCC(=O)N2CC[C@@H](OP(=O)(O)O)C2)c1` [Example 18, (3R)-1-{3-[3-(Decyloxy)phenyl]propanoyl}pyrrolidin-3-yl dihydrogen phosphate ammonium salt], the EC50 on human LPA4 receptor (BSA not added) is 1.9 nM; at human LPA1 receptor (BSA not added) it was over 10000 nM. Also, the Emax on human LPA4 receptor (setting [1]) was found to be 122%.

As to `CCCCCCCCCOc1ccc(CCC(=O)N2CC[C@@H](OP(=O)(O)O)C2)cc1` [Example 20, (3R)-1-{3-[4-(Nonyloxy)phenyl]propanoyl}pyrrolidin-3-yl dihydrogen phosphate ammonium salt], the EC50 on human LPA4 receptor (BSA not added) is 20 nM; on human LPA1 receptor (BSA not added), over 10000 nM. Further, at human LPA4 receptor (setting [1]), the Emax was 153%.

In the case of `CCc1ccc(CCCCCCCCC(=O)N2CC[C@@H](OP(=O)(O)O)C2)cc1` [Example 24, (3R)-1-[9-(4-Ethylphenyl)nonanoyl]pyrrolidin-3-yl dihydrogen phosphate ammonium salt], the values for the EC50 at human LPA4 receptor (BSA not added) and at human LPA1 receptor (BSA not added) were 5.6 nM and over 10000 nM, respectively. In addition, on human LPA4 receptor (setting [1]), the Emax was 138%.

`CCCCCCCCOc1ccc(CCCC(=O)N2CC(OP(=O)(O)O)C2)cc1` [Example 26, 1-{4-[4-(Octyloxy)phenyl]butanoyl}azetidin-3-yl dihydrogen phosphate]: the figures for the EC50 on human LPA4 receptor (BSA not added) and on human LPA1 receptor (BSA not added) were 10 nM and over 10000 nM, respectively. Further, on human LPA4 receptor (setting [2]), the Emax worked out at 125%.

Regarding `Cc1ccc(CCc2ccc(CCCC(=O)N3CC[C@@H](OP(=O)(O)O)C3)cc2)cc1` [Example 29, (3R)-1-(4-{4-[2-(4-Methylphenyl)ethyl]phenyl}butanoyl)pyrrolidin-3-yl dihydrogen phosphate ammonium salt], the EC50 on human LPA4 receptor (BSA not added) was 45 nM; on human LPA1 receptor (BSA not added), over 10000 nM. In addition, the Emax at human LPA4 receptor (setting [1]) was 145%.

`CCCCCCCCCCOc1cccc(CCC(=O)N(CCOP(=O)(O)O)CC(C)C)c1` [Example 33, 2-[{3-[3-(Decyloxy)phenyl]propanoyl}(2-methylpropyl)amino]ethyl dihydrogen phosphate ammonium salt]: the values for the EC50 at human LPA4 receptor (BSA not added) and at human LPA1 receptor (BSA not added) were 33 nM and over 10000 nM, respectively. Further, the Emax on human LPA4 receptor (setting [1]) came out at 121%.

For `CCCCCCCCc1cccc(CCCCCCCC(=O)N2CC(OP(=O)(O)O)C2)c1` [Example compound 43, 1-[8-(3-Octylphenyl)octanoyl]azetidin-3-yl dihydrogen phosphate ammonium salt], the values for the EC50 at human LPA4 receptor (BSA not added) and on human LPA1 receptor (BSA not added) were 27 nM and over 10000 nM, respectively. Moreover, at human LPA4 receptor (setting [1]), the Emax turned out to be 86%.

`CCCCCCCCCCOc1cccc(CCC(=O)N(CCCCOC)CCOP(=O)(O)O)c1` [Example compound 47, 2-[{3-[3-(Decyloxy)phenyl]propanoyl}(4-methoxybutyl)amino]ethyl dihydrogen phosphate ammonium salt]: the EC50 at human LPA4 receptor (BSA not added) was 46 nM; at human LPA1 receptor (BSA not added), over 10000 nM. In addition, the Emax on human LPA4 receptor (setting [1]) turned out to be 94%.

As to `CCCCCCCCCCOc1cccc(CCC(=O)N(CCCCCO)CCOP(=O)(O)O)c1` [Example compound 50, 2-[{3-[3-(Decyloxy)phenyl]propanoyl}(5-hydroxypentyl)amino]ethyl dihydrogen phosphate ammonium salt], the EC50 on human LPA4 receptor (BSA not added) is 23 nM; on human LPA1 receptor (BSA not added), over 1000 nM. The Emax at human LPA4 receptor (setting [1]) worked out at 79%.

For the compound `CCCCCCCCCCOc1cccc(CCC(=O)N(CCOP(=O)(O)O)Cc2ccc(OC)cc2)c1` [Example compound 54, 2-[{3-[3-(Decyloxy)phenyl]propanoyl}(4-methoxybenzyl)amino]ethyl dihydrogen phosphate ammonium salt], the figures for the EC50 on human LPA4 receptor (BSA not added) and at human LPA1 receptor (BSA not added) were under 41 nM and over 10000 nM, respectively. For the same compound, the Emax on human LPA4 receptor (setting [1]) worked out at 106%.

Take `CCCCCCCCCCOc1cccc(CCC(=O)N(CCOP(=O)(O)O)Cc2ccncc2)c1` [Example compound 58, 2-[{3-[3-(Decyloxy)phenyl]propanoyl}(pyridin-4-ylmethyl)amino]ethyl dihydrogen phosphate ammonium salt]: the EC50 at human LPA4 receptor (BSA not added) is under 41 nM; at human LPA1 receptor (BSA not added) it was over 3000 nM. Also, the Emax on human LPA4 receptor (setting [1]) was 148%.

On to `CCCCCCCc1ccc(CCCCC(=O)N2CC(OP(=O)(O)O)C2)cc1` [Example compound 59, 1-[5-(4-Heptylphenyl)pentanoyl]azetidin-3-yl dihydrogen phosphate ammonium salt], for which the EC50 on human LPA4 receptor (BSA not added) is under 41 nM; on human LPA1 receptor (BSA not added), over 10000 nM. In addition, the Emax on human LPA4 receptor (setting [1]) is 86%.

With `CC(C)c1ccc(CCCCCCCCC(=O)N2CC(OP(=O)(O)O)C2)cc1` [Example compound 66, 1 {9-[4-(Propan-2-yl)phenyl]nonanoyl}azetidin-3-yl dihydrogen phosphate], the EC50 was under 41 nM on human LPA4 receptor (BSA not added) and over 10000 nM at human LPA1 receptor (BSA not added). Moreover, the Emax at human LPA4 receptor (setting [1]) stood at 280%.

Take `O=C(CCCCCCCCc1ccc(C2CC2)cc1)N1CC(OP(=O)(O)O)C1` [Example compound 87, 1-[9-(4-Cyclopropylphenyl)nonanoyl]azetidin-3-yl dihydrogen phosphate ammonium salt]: the results for the EC50 at human LPA4 receptor (BSA added) and at human LPA1 receptor (BSA added) were 50 nM and over 10000 nM, respectively. Also, the Emax at human LPA4 receptor (setting [3]) was 97%.

Consider `O=C(CCCCc1cccc(OCCCCC2CCCCC2)c1)N1CC(OP(=O)(O)O)C1` [Example compound 88, 1-{5-[3-(4-Cyclohexylbutoxy)phenyl]pentanoyl}azetidinyl dihydrogen phosphate ammonium salt], for which the EC50 at human LPA4 receptor (BSA added) is 20 nM; on human LPA1 receptor (BSA added), over 10000 nM. The Emax on human LPA4 receptor (setting [3]) was 152%.

Take `O=C(CCCCCCCCc1ccc(C2CCCCC2)cc1)N1CC(OP(=O)(O)O)C1` [Example compound 93, 1-[9-(4-Cyclohexylphenyl)nonanoyl]azetidin-3-yl dihydrogen phosphate]: the EC50 at human LPA4 receptor (BSA added) was under 41 nM; at human LPA1 receptor (BSA added) it was over 10000 nM. For the same compound, the Emax at human LPA4 receptor (setting [3]) was determined as 113%.

For `CCCCCCCCCCOc1cccc(CCC(=O)N(CCOP(=O)(O)O)Cc2cccc(OC)c2)c1` [Example compound 95, 2-[{3-[3-(Decyloxy)phenyl]propanoyl}(3-methoxybenzyl)amino]ethyl dihydrogen phosphate ammonium salt], the EC50 was under 41 nM at human LPA4 receptor (BSA added) and over 10000 nM at human LPA1 receptor (BSA added). Besides, at human LPA4 receptor (setting [3]), the Emax was 136%.

(Values after patent US11802135B2, “Lysophosphatidic acid derivative” (MITSUBISHI TANABE PHARMA CORPORATION, priority 2021, dated 2023).)
